The text below walks through data of patent US6903104B2, “Indol-3-YL-2-oxoacetamide compounds and methods of use thereof” (National Health Research Institutes, priority 2001, dated 2005).

The subject of test [1] is colorectal DLD1 cancer cells. Put plainly: In vitro cytotoxicity MTS assay, colorectal DLD1. In kind it is cell-based, human. As to conditions: 72 hours. On the procedure: (§1) A panel of human cancer cells, gastric NUGC3 and HR, nasopharyngeal HONE1, hepatocellular HEP G2 and HA-22T, colorectal DLD1, lung A549, prostate PC3, breast MCF7 and its adriamycin-resistant MCF7/ADR subline, uterus MES-SA and its adriamycin-resistant MES-SA/Dx5 subline, is purchased from Food Industry Research and Development Institute, Hsinchu, Taiwan R.O.C. or American Type Culture Collection, Manassas, Va. U.S.A., are used in in vitro cytotoxicity assays. The human cells are seeded at a cell density of 3000 or 4500 cells/100 μl/well in 96-well flat-bottom plates and incubated for 24 hours at 37° C. in a 5% CO2 incubator. The testing compounds are dissolved in dimethyl sulfoxide (DMSO) and further diluted into the culture medium for treatments of human cancer cells in vitro. The drug-containing media has a final DMSO concentration of ≦0.3%. The compounds of this invention are prepared in culture media for testing at a range of concentrations from 10, 1, 0.1, 0.01 to 0.001 μM. Each compound solution is (200 μl/well in duplicate) in the cell plates and is treated for 72 hours at 37° C., 5% CO2 in an incubator. Actinomycin D at 5 μM and 0.3% DMSO are used as the positive and vehicle controls, respectively. A colorimetric assay using 3-(4,5-dimethylthiazol-2-yl)-5-(3-carboxymethoxyphenyl)-2-(4-sulfophenyl)-2H-tetrazolium (MTS) and phenazine methosulfate (PMS) is used to determine the potency of the compounds. This assay measures cell viability based on the cellular activity in conversion of a tetrazolium salt into a colored soluble formazan product. The optical density (OD) values are measured at 490 nm with a 1420 multilabel counter VICTOR® from Wallac, Turku, Finland. All of the measured values are subtracted with that of the blank control wells without cells before further calculations. The efficacy data are expressed as a percentage normalized to the vehicle controls as calculated in the following formulae. Inhibitory potency (% of vehicle control)=[(OD490compound−OD490blank)/(OD490vehicle−OD490blank)]×100%. The concentration (IC50) of a test compound that inhibits 50% of the cellular activity is determined.

For test [2], the system named is hepatocellular HA-22T cancer cells. Put plainly: In vitro cytotoxicity MTS assay, hepatocellular HA-22T. In kind it is cell-based, human. As to conditions: 72 hours. Here is the method:
as §1
On the technique in general: Formazan colour is commonly taken as a measure of viable cells.

The test system of the next test is gastric HR cancer cells. Kind of test: In vitro cytotoxicity MTS assay, gastric HR. It is filed as cell-based, human. As to conditions: 72 hours. Here is the method: as §1
For test [3], the system named is nasopharyngeal HONE1 cancer cells. Kind of test: In vitro cytotoxicity MTS assay, nasopharyngeal HONE1. It is filed as cell-based, human. The following applies: 72 hours. On the procedure:
as §1

Test [4] relates to rat aorta endothelial cells. Put plainly: Rat aorta tube formation assay (angiogenesis inhibition). It is filed as cell-based, Spraque-Dawley rats. Also noted: key: Noninhibitors are indicated by the symbol (−), meaning that the extent of endothelial cell growth is essentially at the same level as that of the control; The most potent inhibitors receive a score of (+++++), indicating essentially no measurable endothelial cell growth. The following applies: 5 days. Here is the method: The procedures are modified from previous reports (Burbridge and West 2001; Bauer et al. 2000; Nicosai and Ottinetti 1990a) and described as follows. Male Spraque-Dawley rats of 6-8 weeks old are purchased from the National Laboratory Animal Breeding and Research Center (Taipei, Taiwan). The animals are anesthetized with urethane (2 g/kg, intraperitoneal) and the thoracic aortas are quickly harvested in a laminar flow hood. The aortas are rinsed with ice-cold normal saline with 10 μg/ml gentamicin and the attached fibroadipose tissues are removed using micro-dissection scissors. The aortas are cross-sectioned into rings of 1 mm in thickness. A mixture of Matrigel®, purchased from BD Biosciences, solution and the EBM-II medium, purchased from BioWhittaker Inc., (1:1) with 2% FBS, 0.25 mg/ml, amphotericin B and 10 μg/ml gentamicin is prepared and added at 100 μl to each well of a 48-well plate. The mixture is allowed to gel at 37° C. Aorta rings are then placed onto the gelled matrix and embedded in an additional 150 μl per well of the mixture solution and allowed to gel at 37° C. The aorta rings are then covered with 125 μl of the EGM-II medium and incubated overnight in humidified incubator with 5% CO2/95% air at 37° C. After removal of the EGM-II from the established aorta cultures, the compound-containing media are applied at 300 μl per well to the cultures and then incubated in 5% CO2/95% air at 37° C. for 5 days. The cultures are then subject to the 3-[4,5-dimethylthiazol-2-yl]-2,5 diphenyl-2H-tetrazolium bromide (MTT) or 3-(4,5-dimethylthiazol-2-yl)-5-(3-carbomethoxyphenyl)-2H-tetrazolium (MTS) assay and OD490 nm values measured. The testing compounds are dissolved in dimethyl sulfoxide (DMSO) and prepared in EBM-II media with at a final concentration of DMSO less than 0.1%.
The capillary-like, tube structure of the outgrown rat aorta endothelial cells is easily visualized by MTT staining. The medium on top of the matrix is removed from the established aorta ring cultures. MTT solution of 5 mg/ml in saline is added to the cultures at 100 μl/well and the cultures are incubated in a CO2 incubator at 37° C. for 24 hr. The stained cultures are then examined under a microscope DMIRB from Leica and photos taken with a digital camera.
Inhibition activity is also assessed in the following manner. The reductive reaction of MTS initiated by the viable cellular mitochondrial activity is used as a basis for the measurement of cell viability (Cory et al. 1991; Gieni et al. 1995). To the rat aorta ring cultures 300 μl of a solution containing 100 μg MTS and 1 μg, phenazine methosulfate is added per well and incubated in 5% CO2/95% air at 37° C. for 24 hr. During the incubation, MTS is converted to formazan product. At the end of incubation, the solution overlaying the gel is well-mixed and 100 μl aliquots are transferred into a 96-well plate for measurement of OD490 nm with a spectrophotometer VICTOR™-II from Wallac Oy.
The compounds listed in Table 3 are screened for angiogenesis inhibition. The control compound, ASTA, is D-24851, N-[pyridin-4-yl]-[1-(4-chlorobenzyl)-indol-3-yl]-glyoxylic acid amide. Noninhibitors are indicated by the symbol (−), meaning that the extent of endothelial cell growth is essentially at the same level as that of the control.

Test [5] deals with hepatocellular HEP G2 cancer cells. Kind of test: In vitro cytotoxicity MTS assay, hepatocellular HEP G2. It is filed as cell-based, human. The following applies: 72 hours. Here is the method: as §1
Test [6] deals with adriamycin-resistant MCF7/ADR subline. Put plainly: In vitro cytotoxicity MTS assay, adriamycin-resistant MCF7/ADR. In kind it is cell-based, human. As to conditions: 72 hours. On the procedure: as §1
Test [7] relates to gastric NUGC3 cancer cells. Put plainly: In vitro cytotoxicity MTS assay, gastric NUGC3. The following applies: 72 hours. It is filed as cell-based, human. On the procedure:
as §1

The subject of the next test is breast MCF7 cancer cells. Kind of test: In vitro cytotoxicity MTS assay, breast MCF7. As to conditions: 72 hours. In kind it is cell-based, human. Here is the method:
as §1

In test [8] the test system is murine leukemic P388 cells. Kind of test: In vivo anticancer activity, murine leukemic P388 model. The following applies: for increase of life span: P.O., daily, 4×. Also on record: species or system DBA/2J mice. Here is the method: The in vivo anticancer activities of the compounds are evaluated by the following murine leukemic P388 model. Inbred female DBA/2J mice of 4-5 week-old were purchased from the Charles River Laboratories Inc., Wilmington, Mass., USA and the National Laboratory Animals Breeding and Research Center, Taipei, Taiwan, ROC. Murine leukemic P388 cells are purchased from the Japanese Collection of Research Bioresources, Japan. P388 cells are cultured and propagated in RPMI1640 medium supplemented with 50 μM 2-mercaptoethanol and 10% fetal bovine serum. Mice at the age of 6 weeks were grouped as the treatment, negative control and positive control groups at 7 to 8 mice per group. All mice are intravenously inoculated with the P388 cells at one million per mouse one day before the treatments initiated. Compounds of this invention are dissolved in dimethyl sulfoxide (DMSO) and then diluted in 0.5% carboxymethyl cellulose with the final concentration of DMSO less than 0.5%. Different treatment groups are orally given (P.O.), respectively, with compounds of different doses for a pharmacological dose-response relationship. Mice of the negative control group are treated with the dosing vehicle, 0.5% carboxymethyl cellulose. Doxorubicin of the maximal tolerated dose, 10 mg/kg, is given intravenously as an experimental positive control. The cancer cell-inoculated animals are monitored twice daily. The time on which 50% of the P388-inoculated mice is still surviving is defined as the medium survival time and is used to calculate the percentage (normalized to the medium survival time of the control group) of increased in life span after treatment, which is then served as the index of treatment response.

As a reminder, the IC50 is the concentration that inhibits the measured activity by half. Turning to `N#Cc1ccc(Cn2cc(C(=O)C(=O)Nc3ccc(I)cc3)c3ccccc32)cc1` [Compound 13], the IC50 in test [1] came to 846 nM; in [2], 356 nM; with gastric HR cancer cells it was 396 nM; in test [3], 98 nM; in test [5] it was 6310 nM; in [6] it was 597 nM. Besides, the figures for the IC50 (in test [7]; with breast MCF7 cancer cells) were 431 nM and 577 nM, respectively. Moreover, the “Inhibition Score” value in [4] (final conc. 0.3 μg/ml) was “+++++”.
Take `Cc1cc(Cn2cc(C(=O)C(=O)Nc3ccc4ncccc4c3)c3ccccc32)on1` [Compound 59]: the IC50 is 658 nM in test [1]; 115 nM in [2]; 294 nM in the test with gastric HR cancer cells; 34 nM in [3]; 613 nM in [5]; 300 nM in test [6]. Besides, the IC50 stood at 262 nM in [7] and 678 nM with breast MCF7 cancer cells. In addition, in test [4] (final conc. 0.3 μg/ml), the “Inhibition Score” value is “+++++”.
With `O=C(Nc1ccc2ncccc2c1)C(=O)c1cn(Cc2ccsc2)c2ccccc12` [Compound 48], the IC50 in test [1] amounted to 1430 nM; in test [2], 303 nM; with gastric HR cancer cells, 552 nM; in test [3] it was 217 nM; in test [5] it was 4130 nM; in test [6], 371 nM. The IC50 in [7] was 206 nM; with breast MCF7 cancer cells it was 915 nM. Besides, the “increase of life span” value in [8] (25 mg/kg, P388-inoculated mice) was 25%; in test [8] (50 mg/kg, P388-inoculated mice), 60%; in test [8] (100 mg/kg, P388-inoculated mice) it was 25%; in [8] (150 mg/kg, P388-inoculated mice) it was 68 ± 25%; in test [8] (200 mg/kg, P388-inoculated mice), 63%; in [8] (400 mg/kg, P388-inoculated mice), 229%. The “activity in the increase of life span (dose-response)” value in test [8] (oral, P388-inoculated mice) is given as “dose-dependent activity”.
In the case of `N#Cc1ccc(Cn2cc(C(=O)C(=O)NCCCCCCOc3ccc(Cl)cc3)c3ccccc32)cc1` [Compound 43], the half-inhibitory concentration (IC50) in test [1] worked out at 534 nM; in test [2] it was 200 nM; with gastric HR cancer cells it was 291 nM; in [3], 31 nM; in test [5], 713 nM; in test [6], 412 nM. Besides, the IC50 in test [7] is 134 nM; with breast MCF7 cancer cells, 856 nM.
As to `COc1ccc(NC(=O)C(=O)c2cn(Cc3ccccc3C#N)c3ccccc23)cc1` [Compound 32], the IC50 came out at 5650 nM in test [1]; 1910 nM in test [2]; 2250 nM in the test on gastric HR cancer cells; 928 nM in [3]; 4770 nM in test [5]; 5290 nM in test [6]. The IC50 in test [7] was 4850 nM; with breast MCF7 cancer cells, 5180 nM. Further, the “Inhibition Score” value in test [4] (final conc. 0.3 μg/ml) is recorded as “+++++”.
As to `COc1ccc(NC(=O)C(=O)c2cn(Cc3ccsc3)c3ccccc23)cc1` [Compound 50], the IC50 is 734 nM in test [1]; 46 nM in [2]; 128 nM in the test with gastric HR cancer cells; 38 nM in test [3]; 1320 nM in test [5]; 406 nM in test [6]. Moreover, the IC50 in test [7] came out at 37 nM; in the test with breast MCF7 cancer cells, 171 nM.
With `Cc1cc(NC(=O)C(=O)c2cn(Cc3cccs3)c3ccccc23)sn1` [Compound 44], the “Inhibition Score” value in test [4] (final conc. 1 μg/ml) is listed as “+++++”.
Take `N#Cc1ccc(Cn2cc(C(=O)C(=O)Nc3cc(-c4ccc(Cl)cc4)no3)c3ccccc32)cc1` [Compound 30]: the IC50 was determined as 926 nM in [1]; 558 nM in [2]; 739 nM with gastric HR cancer cells; 332 nM in test [3]; 953 nM in test [5]; 847 nM in [6]. Further, the IC50 in test [7] came to 639 nM; in the test on breast MCF7 cancer cells, 920 nM.
For `COc1cccc2c1C(=O)c1c(O)c3c(c(O)c1C2=O)C[C@@](O)(C(=O)CO)C[C@@H]3O[C@H]1C[C@H](N)[C@H](O)[C@H](C)O1` [doxorubicin, reference compound], the “increased of life span” value in test [8] (maximal tolerated dose, 10 mg/kg, intravenously, mean±sd) turned out to be 119±18%.
Take `Cc1cc(Cn2cc(C(=O)C(=O)Nc3ccc(Br)cc3)c3ccccc32)on1` [Compound 62]: the IC50 came out at 651 nM in test [1]; 148 nM in [2]; 300 nM in the test on gastric HR cancer cells; 42 nM in test [3]; 6810 nM in [5]; 509 nM in test [6]. The IC50 in [7] came out at 137 nM; with breast MCF7 cancer cells, 872 nM.
